Read-outs that look alike come from different tables or passages of the source. Where only a bound is given, the exact number is not on record here.

One test deals with human TLR8 (Homo sapiens (Human), UniProt Q9NR97). Description: TLR8 inhibition reporter assay (HEK-Blue cells, SEAP reporter, R848 stimulation). (In a reporter assay the amount or activity of a reporter protein is the signal.)
The next test concerns the target human TLR9 (Homo sapiens (Human), UniProt Q9NR96). Put plainly: TLR9 inhibition reporter assay (HEK-Blue cells, SEAP reporter, ODN2006 stimulation).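 Also: compounds tested over 0.05 nM to 50 µM, 22 h incubation, inhibition taken as SEAP signal drop from agonist plus DMSO wells toward a known inhibitor control.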
Another test deals with human TLR7 (Homo sapiens (Human), UniProt Q9NYK1). Description: TLR7 inhibition reporter assay (HEK-Blue cells, SEAP reporter, gardiquimod stimulation). Type of test: cell-based.
human TLR7, sequence (Q9NYK1 27-1049): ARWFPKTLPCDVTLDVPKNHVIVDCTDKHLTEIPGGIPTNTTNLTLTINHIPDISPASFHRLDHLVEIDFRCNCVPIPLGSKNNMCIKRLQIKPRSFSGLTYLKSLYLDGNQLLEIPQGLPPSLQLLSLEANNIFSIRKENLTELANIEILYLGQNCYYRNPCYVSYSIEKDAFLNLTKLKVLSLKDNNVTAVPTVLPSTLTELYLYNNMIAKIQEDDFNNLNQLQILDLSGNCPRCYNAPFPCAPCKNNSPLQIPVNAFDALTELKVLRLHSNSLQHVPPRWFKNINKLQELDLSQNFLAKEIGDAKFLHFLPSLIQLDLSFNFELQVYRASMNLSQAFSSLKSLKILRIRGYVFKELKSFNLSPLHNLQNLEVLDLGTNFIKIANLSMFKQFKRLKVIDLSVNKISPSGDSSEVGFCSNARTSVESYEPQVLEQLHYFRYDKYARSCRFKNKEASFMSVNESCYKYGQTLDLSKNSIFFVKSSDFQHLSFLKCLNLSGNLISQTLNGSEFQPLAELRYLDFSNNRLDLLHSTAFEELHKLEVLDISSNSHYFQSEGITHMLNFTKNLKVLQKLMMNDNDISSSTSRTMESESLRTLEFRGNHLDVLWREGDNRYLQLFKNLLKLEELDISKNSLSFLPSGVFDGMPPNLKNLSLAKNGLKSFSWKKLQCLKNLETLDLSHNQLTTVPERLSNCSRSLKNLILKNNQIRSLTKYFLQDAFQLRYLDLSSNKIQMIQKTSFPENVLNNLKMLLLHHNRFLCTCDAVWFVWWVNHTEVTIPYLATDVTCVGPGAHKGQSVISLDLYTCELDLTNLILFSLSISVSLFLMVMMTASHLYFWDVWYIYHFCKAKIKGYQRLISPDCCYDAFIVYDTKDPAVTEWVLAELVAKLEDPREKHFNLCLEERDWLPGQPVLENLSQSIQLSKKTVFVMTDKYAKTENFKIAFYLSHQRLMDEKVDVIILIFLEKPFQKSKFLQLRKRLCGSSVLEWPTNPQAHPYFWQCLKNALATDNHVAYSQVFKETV
Where [1] appears, read: read-out: TLR8 IC50, HEK-Blue cells overexpressing human TLR8, R848 15.9 μM.
Setting [2] is: read-out: TLR9 IC50, HEK-Blue cells overexpressing human TLR9, ODN2006 5 nM.
Setting [3] is: HEK-Blue cells overexpressing human TLR7, gardiquimod 7.5 μM.
Setting [4] is: read-out: TLR8 IC50, HEK-Blue cells, R848 15.9 μM.
Setting [5] is: read-out: TLR9 IC50, HEK-Blue cells, ODN2006 5 nM.
Setting [6] is: HEK-Blue cells, gardiquimod 7.5 μM.

human TLR8, sequence (Q9NR97 27-1041): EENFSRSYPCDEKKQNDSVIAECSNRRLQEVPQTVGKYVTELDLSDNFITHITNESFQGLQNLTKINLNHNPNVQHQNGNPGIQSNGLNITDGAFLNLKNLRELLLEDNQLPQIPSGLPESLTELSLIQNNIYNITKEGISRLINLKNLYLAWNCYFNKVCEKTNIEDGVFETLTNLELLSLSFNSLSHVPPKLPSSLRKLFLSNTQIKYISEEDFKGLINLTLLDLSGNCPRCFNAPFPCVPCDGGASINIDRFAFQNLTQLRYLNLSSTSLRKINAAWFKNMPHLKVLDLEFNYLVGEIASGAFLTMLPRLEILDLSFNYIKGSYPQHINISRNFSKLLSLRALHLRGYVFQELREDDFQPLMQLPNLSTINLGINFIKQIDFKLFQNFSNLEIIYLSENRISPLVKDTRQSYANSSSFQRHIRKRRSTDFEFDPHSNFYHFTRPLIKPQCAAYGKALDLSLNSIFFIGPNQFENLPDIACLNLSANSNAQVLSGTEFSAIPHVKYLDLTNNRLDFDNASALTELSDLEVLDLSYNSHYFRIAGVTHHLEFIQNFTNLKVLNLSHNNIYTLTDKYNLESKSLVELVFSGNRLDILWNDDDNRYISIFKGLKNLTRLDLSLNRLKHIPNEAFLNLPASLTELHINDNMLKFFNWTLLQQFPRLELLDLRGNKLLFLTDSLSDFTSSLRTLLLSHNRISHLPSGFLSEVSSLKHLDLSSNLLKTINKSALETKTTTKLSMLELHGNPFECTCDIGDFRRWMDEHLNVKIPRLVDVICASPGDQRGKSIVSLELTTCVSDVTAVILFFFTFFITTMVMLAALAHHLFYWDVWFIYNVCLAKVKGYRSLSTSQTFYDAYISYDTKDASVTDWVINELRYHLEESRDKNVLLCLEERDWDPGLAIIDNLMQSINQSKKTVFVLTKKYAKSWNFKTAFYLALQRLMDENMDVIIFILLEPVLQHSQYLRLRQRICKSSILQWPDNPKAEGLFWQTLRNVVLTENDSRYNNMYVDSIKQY
human TLR9, sequence (Q9NR96 26-1032): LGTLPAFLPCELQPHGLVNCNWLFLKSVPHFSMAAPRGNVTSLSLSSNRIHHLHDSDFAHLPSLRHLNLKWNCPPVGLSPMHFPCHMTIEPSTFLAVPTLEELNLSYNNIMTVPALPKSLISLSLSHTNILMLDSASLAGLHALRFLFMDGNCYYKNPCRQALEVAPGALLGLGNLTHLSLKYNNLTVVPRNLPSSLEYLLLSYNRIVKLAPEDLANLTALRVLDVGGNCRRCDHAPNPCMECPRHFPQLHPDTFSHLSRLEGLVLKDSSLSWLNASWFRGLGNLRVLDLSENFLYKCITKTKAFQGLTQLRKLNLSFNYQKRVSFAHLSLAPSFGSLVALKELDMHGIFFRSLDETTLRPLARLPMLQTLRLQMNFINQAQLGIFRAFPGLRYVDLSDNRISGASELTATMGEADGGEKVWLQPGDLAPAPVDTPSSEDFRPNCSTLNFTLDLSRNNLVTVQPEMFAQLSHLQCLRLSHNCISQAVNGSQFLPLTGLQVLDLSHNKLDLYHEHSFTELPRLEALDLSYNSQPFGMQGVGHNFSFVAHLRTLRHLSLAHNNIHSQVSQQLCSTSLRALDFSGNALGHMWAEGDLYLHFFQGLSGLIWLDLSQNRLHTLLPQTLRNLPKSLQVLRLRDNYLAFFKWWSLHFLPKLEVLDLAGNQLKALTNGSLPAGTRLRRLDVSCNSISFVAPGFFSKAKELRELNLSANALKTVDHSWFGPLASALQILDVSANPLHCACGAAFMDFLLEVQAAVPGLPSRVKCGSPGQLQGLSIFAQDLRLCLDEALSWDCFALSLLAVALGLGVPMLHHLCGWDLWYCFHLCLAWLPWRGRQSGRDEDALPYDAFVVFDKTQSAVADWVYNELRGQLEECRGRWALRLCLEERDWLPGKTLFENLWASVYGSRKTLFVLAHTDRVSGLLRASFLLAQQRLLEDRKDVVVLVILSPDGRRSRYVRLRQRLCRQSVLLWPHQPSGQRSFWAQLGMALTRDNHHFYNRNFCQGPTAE
Procedure for human TLR9: TLR7/8/9 Inhibition Reporter Assays
Briefly, cells are seeded into Greiner 384 well plates (15000 cells per well for TLR7, 20,000 for TLR8 and 25,000 for TLR9) and then treated with test compounds in DMSO to yield a final dose response concentration range of 0.05 nM-50 μM. […] After a 22 hour incubation at 37° C., 5% CO2, SEAP levels are determined with the addition of HEK-Blue™ Detection reagent (Invivogen), a cell culture medium that allows for detection of SEAP, according to manufacturer's specifications. The percent inhibition is determined as the % reduction in the HEK-Blue signal present in wells treated with agonist plus DMSO alone compared to wells treated with a known inhibitor.

What is called IC50 is the point on the concentration scale where inhibition reaches its midpoint. Take `COCCOC(=O)N1CCC(c2ccc3[nH]c(-c4ccnc(C)c4)c(C(C)C)c3c2)CC1` [Example 561, 2-methoxyethyl 4-(3-isopropyl-2-(2-methylpyridin-4-yl)-1H-indol-5-yl)piperidine-1-carboxylate]: the concentration for half-maximal inhibition (IC50) came out at 363 nM on human TLR8 (setting [1]), 43900 nM on human TLR9 (setting [2]) and 202 nM on human TLR7 (setting [3]).
As for `Cc1cc(-c2[nH]c3ccc(C4CCN(C(=O)C5CCOCC5)CC4)cc3c2C(C)C)cc(C)n1` [Example 198, (4-(2-(2,6-dimethylpyridin-4-yl)-3-isopropyl-1H-indol-5-yl)piperidin-1-yl)(tetrahydro-2H-pyran-4-yl)methanone], the IC50 on human TLR8 (setting [1]) is 104 nM; on human TLR9 (setting [2]) it was 30800 nM; against human TLR7 (setting [3]), 8.9 nM.
For `Cc1cc(-c2[nH]c3ccc(C4CCN(C(=O)CN5CCCCC5)CC4)cc3c2C(C)C)cc(C)n1` [Example 351, 1-(4-(2-(2,6-dimethylpyridin-4-yl)-3-isopropyl-1H-indol-5-yl)piperidin-1-yl)-2-(piperidin-1-yl)ethan-1-one] the same measures were 7.3 nM, 559 nM and 3.1 nM.
As for `Cc1cc(-c2[nH]c3ccc(C4CCN(C(=O)C(F)F)CC4)cc3c2C(C)C)cc(C)n1` [Example 105, 1-(4-(2-(2,6-dimethylpyridin-4-yl)-3-isopropyl-1H-indol-5-yl)piperidin-1-yl)-2,2-difluoroethan-1-one], the half-maximal inhibitory concentration (IC50) on human TLR8 (TLR8 IC50, HEK-Blue cells overexpressing human TLR8, R848 15.9 μM) worked out at 21.8 nM; at human TLR9 (TLR9 IC50, HEK-Blue cells overexpressing human TLR9, ODN2006 5 nM) it was 12000 nM; against human TLR7 (setting [3]), 3.3 nM.
For the compound `CCN(C)C(=O)CN1CCC(c2ccc3[nH]c(-c4cc(C)nc(C)c4)c(C(C)C)c3c2)CC1` [Example 246, 2-(4-(2-(2,6-dimethylpyridin-4-yl)-3-isopropyl-1H-indol-5-yl)piperidin-1-yl)-N-ethyl-N-methylacetamide], the results for the IC50 at human TLR8 (setting [1]), on human TLR9 (setting [2]) and against human TLR7 (setting [3]) were 5.3 nM, 663 nM and 2.6 nM, respectively.
Taken in the same sequence, the figures for `Cc1cc(-c2[nH]c3ccc(C4CCN(C5COC5)CC4)cc3c2C(C)C)c(F)cn1` [Example 721, 2-(5-fluoro-2-methylpyridin-4-yl)-3-isopropyl-5-(1-(oxetan-3-yl)piperidin-4-yl)-1H-indole] were 7.4 nM, 19800 nM and 13.8 nM.
For `Cc1cc(-c2[nH]c3ccc(C4CCN(C5CCOC5)CC4)cc3c2C(C)C)ccn1` (stereo not drawn) [Example 717, 3-isopropyl-2-(2-methylpyridin-4-yl)-5-(1-(tetrahydrofuran-3-yl)piperidin-4-yl)-1H-indole], the results for the IC50 on human TLR8 (setting [1]), on human TLR9 (setting [2]) and at human TLR7 (setting [3]) were 5.9 nM, 1590 nM and 15.8 nM, respectively.
Taken in the same sequence, the figures for `Cc1cc(-c2[nH]c3ccc(C4CCN(CCCN(C)C)CC4)cc3c2C(C)C)ccn1` [Example 669, 3-(4-(3-isopropyl-2-(2-methylpyridin-4-yl)-1H-indol-5-yl)piperidin-1-yl)-N,N-dimethylpropan-1-amine] were 1.9 nM, 221 nM and 2.6 nM.
For `Cc1cc(-c2[nH]c3ccc(C4CCN(C(=O)Cn5cncn5)CC4)cc3c2C(C)C)cc(C)n1` [Example 170, 1-(4-(2-(2,6-dimethylpyridin-4-yl)-3-isopropyl-1H-indol-5-yl)piperidin-1-yl)-2-(1H-1,2,4-triazol-1-yl)ethan-1-one] the same measures were 206 nM, over 50000 nM and 12.1 nM.
For `Cc1cc(-c2[nH]c3ccc(C4CCN(CC(=O)N(CCO)C(C)C)CC4)cc3c2C(C)C)cc(C)n1` [Example 299, 2-(4-(2-(2,6-dimethylpyridin-4-yl)-3-isopropyl-1H-indol-5-yl)piperidin-1-yl)-N-(2-hydroxyethyl)-N-isopropylacetamide] the same measures were 112 nM, 2630 nM and 24 nM.
In the case of `Cc1cc(-c2[nH]c3ccc(C4CCN(CC(=O)NCC5CCCO5)CC4)cc3c2C(C)C)cc(C)n1` (stereo not drawn) [Example 266, 2-(4-(2-(2,6-dimethylpyridin-4-yl)-3-isopropyl-1H-indol-5-yl)piperidin-1-yl)-N-((tetrahydrofuran-2-yl)methyl)acetamide], the IC50 at human TLR8 (setting [1]) was determined as 10.8 nM; at human TLR9 (setting [2]), 522 nM; against human TLR7 (setting [3]) it was 3.2 nM.
As for `CC(=O)N1CCC(c2ccc3[nH]c(-c4ccnc(C)c4)c(C(C)C)c3c2)CC1` [Example 826, 1-(4-(3-isopropyl-2-(2-methylpyridin-4-yl)-1H-indol-5-yl)piperidin-1-yl)ethan-1-one], the half-inhibitory concentration (IC50) on human TLR8 (setting [4]) was determined as 186 nM; on human TLR9 (setting [5]), 43400 nM; against human TLR7 (setting [6]) it was 42.6 nM.
Turning to `Cc1cc(-c2[nH]c3ccc(C4CCN(C(=O)CN5CCCC(C)(C)C5)CC4)cc3c2C(C)C)cc(C)n1` [Example 358, 2-(3,3-dimethylpiperidin-1-yl)-1-(4-(2-(2,6-dimethylpyridin-4-yl)-3-isopropyl-1H-indol-5-yl)piperidin-1-yl)ethan-1-one], the half-maximal inhibitory concentration (IC50) on human TLR8 (setting [1]) is 23.7 nM; at human TLR9 (setting [2]), 943 nM; at human TLR7 (setting [3]), 12.9 nM.
For `Cc1cc(-c2[nH]c3ccc(C4CCN(Cc5[nH]cnc5C)CC4)cc3c2C(C)C)ccn1` [Example 744, 3-isopropyl-5-(1-((4-methyl-1H-imidazol-5-yl)methyl)piperidin-4-yl)-2-(2-methylpyridin-4-yl)-1H-indole] the same measures were 13.5 nM, 281 nM and 28.1 nM.
For `CCc1c(-c2ccnc(C)c2)[nH]c2ccc(C3CCN(C(=O)CCN(C)C)CC3)cc12` [Example 594, 3-(dimethylamino)-1-(4-(3-ethyl-2-(2-methylpyridin-4-yl)-1H-indol-5-yl)piperidin-1-yl)propan-1-one] the same measures were 39.4 nM, 610 nM and 30.2 nM.
For `Cc1nccc(-c2[nH]c3ccc(C4CCNCC4)cc3c2C(C)C)c1F` [Example 53, 2-(3-fluoro-2-methylpyridin-4-yl)-3-isopropyl-5-(piperidin-4-yl)-1H-indole] the same measures were 1.2 nM, 2300 nM and 2.9 nM.
For `Cc1cc(-c2[nH]c3ccc(C4CCN(C(=O)CN(C)C)CC4)cc3c2C(C)C)c(F)c(C)n1` [Example 588, 2-(dimethylamino)-1-(4-(2-(3-fluoro-2,6-dimethylpyridin-4-yl)-3-isopropyl-1H-indol-5-yl)piperidin-1-yl)ethan-1-one], the results for the IC50 on human TLR8 (setting [1]), on human TLR9 (setting [2]) and on human TLR7 (setting [3]) were 1.3 nM, 845 nM and 0.5 nM, respectively.
For `Cc1cc(-c2[nH]c3ccc(C4CCN(CC(C)(C)C(=O)O)CC4)cc3c2C(C)C)cc(C)n1` [Example 321, 3-(4-(2-(2,6-dimethylpyridin-4-yl)-3-isopropyl-1H-indol-5-yl)piperidin-1-yl)-2,2-dimethylpropanoic acid] the same measures were 68.5 nM, over 50000 nM and 17.1 nM.
Taken in the same sequence, the figures for `Cc1cc(-c2[nH]c3ccc(C4CCN(CC5CCCC5)CC4)cc3c2C(C)C)cc(C)n1` [Example 468, 5-(1-(cyclopentylmethyl)piperidin-4-yl)-2-(2,6-dimethylpyridin-4-yl)-3-isopropyl-1H-indole] were 35.5 nM, 1340 nM and 17.8 nM.
For `Cc1cc(-c2[nH]c3ccc(C4CCN(Cc5cnn(C)c5)CC4)cc3c2C(C)C)cc(C)n1` [Example 440, 2-(2,6-dimethylpyridin-4-yl)-3-isopropyl-5-(1-((1-methyl-1H-pyrazol-4-yl)methyl)piperidin-4-yl)-1H-indole] the same measures were 2.3 nM, 210 nM and 5.3 nM.
Consider `Cc1cc(-c2[nH]c3ccc(C4CCN(C(=O)C5CC(=O)N(C)C5)CC4)cc3c2CC(F)F)cc(C)n1` (stereo not drawn) [Example 534, 4-(4-(3-(2,2-difluoroethyl)-2-(2,6-dimethylpyridin-4-yl)-1H-indol-5-yl)piperidine-1-carbonyl)-1-methylpyrrolidin-2-one], for which the 50% inhibitory concentration (IC50) at human TLR8 (setting [1]) came out at 660 nM; at human TLR9 (setting [2]), 45400 nM; against human TLR7 (setting [3]), 63.8 nM.
On to `Cc1cc(-c2[nH]c3cc(F)c(C4CCN(CC(=O)N(C)C)CC4)cc3c2C(C)C)cc(C)n1` [Example 837, 2-(4-(2-(2,6-dimethylpyridin-4-yl)-6-fluoro-3-isopropyl-1H-indol-5-yl)piperidin-1-yl)-N,N-dimethylacetamide], for which the 50% inhibitory concentration (IC50) on human TLR8 (setting [4]) worked out at 11.4 nM; on human TLR9 (setting [5]) it was 194 nM; against human TLR7 (setting [6]) it was 1.9 nM.
As for `COc1ncc(CN2CCC(c3ccc4[nH]c(-c5cc(C)ncc5F)c(C(C)C)c4c3)CC2)cn1` [Example 733, 2-(5-fluoro-2-methylpyridin-4-yl)-3-isopropyl-5-(1-((2-methoxypyrimidin-5-yl)methyl)piperidin-4-yl)-1H-indole], the IC50 came out at 4.2 nM at human TLR8 (setting [1]), 1810 nM at human TLR9 (setting [2]) and 11.1 nM against human TLR7 (setting [3]).
Consider `Cc1cc(-c2[nH]c3ccc(C4CCN(C(=O)C(=O)N5CCN(C)CC5)CC4)cc3c2C(C)C)cc(C)n1` [Example 856, 1-(4-(2-(2,6-dimethylpyridin-4-yl)-3-isopropyl-1H-indol-5-yl)piperidin-1-yl)-2-(4-methylpiperazin-1-yl)ethane-1,2-dione], for which the figures for the half-maximal inhibitory concentration (IC50) at human TLR8 (setting [4]), at human TLR9 (setting [5]) and on human TLR7 (setting [6]) were 30.6 nM, 832 nM and 2.9 nM, respectively.
